From patent US20130101565A1, “USE OF CARBONIC ANHYDRASE II FOR PRODUCING A DRUG” (CONSEJO SUPERIOR DE INVESTIGACIONES CIENTIFICAS (CSIC), priority 2009, published 2013)

Legend:
Erythropoietin (EPO) = test: In vivo renal ischemia-reperfusion: Western Blot for EPO in renal tissue; parameters: species or system Swiss strain mice; conditions: vs I/R, FIG. 3
Description: (§1) Swiss strain mice were used, males with an approximate weight of 25-30 g (Charles River, France). All the procedures were performed under the supervision of the ethics committee of the Institute for Biomedical Research of Barcelona (CSIC) and followed European Union guidelines. The environmental conditions were kept constant, the temperature was 21-22° C., the relative humidity was 70% and the alternative cycles of light/darkness were 12 h. The animals were fed a standard diet of AO4 fodder (Panlab, Barcelona) and water from the Barcelona supply network ad libitum.
(§2) The animals were anaesthesised with Isoflurane, placed in the supine position, and their body temperature was maintained at between 36° C. and 37° C. […]
The renal tissue samples were homogenised in lysis buffer (70 mM sucrose, 2 mM Hepes KOH, 220 mM Mannitol, 0.1 mM EGTA, 1 mM PMSF, 0.1 mM BSA, antiproteases cocktail (SIGMA)); subsequently, the protein concentration thereof was determined. The proteins were determined by means of the Bradford colorimetric method with a commercial reagent from BioRad.
50 μg of protein for each of the groups to be analysed were placed in each well of the 12% acrylamide gel. […]

PCNA and Stathmin genes = test: In vivo renal ischemia-reperfusion: real-time RT-PCR of regeneration markers PCNA and Stathmin in kidney; parameters: species or system Swiss strain mice; conditions: FIG. 1
Description: as §1
The animals were anaesthesised with Isoflurane, placed in the supine position, and their body temperature was maintained at between 36° C. and 37° C. After performing a median laparotomy to access the kidney, carefully putting aside the intestinal packet, bilateral ischemia was induced by clamping both renal arterio-venous pedicles with a non-traumatic microvascular clamp for 45 minutes. Subsequently, the reperfusion period was started, with removal of the clamp, and it was visually verified by observing the return of the blood flow to the kidney. Subsequently, the animal was sutured and administered subcutaneous Buprex (4.16 μg/100 g of weight).
Animals subjected to a sham operation were used as controls. During the entire operation process, the animals were well hydrated and the body temperature was maintained at about 37° C. During the reperfusion time, the animals were stabulated under the control of a veterinary. […]
(§3) The RNA of the kidney samples was extracted by means of the TRIzol reagent in accordance with the manufacturer's instructions (Invitrogen, Barcelona). […] The RNA concentrations were calculated by determining the absorbance at 260 nm. The integrity of the RNA thus obtained was examined by analysing the 18s and 28s ribosomal RNA bands detected and analysed in the Bioanalyzer of the Clinical Hospital of Barcelona (Agilent).
The expression of the analysed genes was measured by means of real-time quantitative RT-PCR normalised with the glyceraldehyde 3-phosphate dehydrogenase (GAPDH) housekeeping gene. […]

caspase 3 = test: In vivo renal ischemia-reperfusion: apoptosis evaluated by activity of caspase 3 in renal tissue; parameters: species or system Swiss strain mice; conditions: FIG. 2
Description: as §1, §2
(§4) The activity of caspase-3 was determined by measuring the proteolysis of the specific substrate (N-acetyl-Asp-Glu-Val-Asp-7-amino-4-methyl coumarin (DEVD-AMC; Biomol, Plymouth Meeting, Pa.). The renal tissue samples were homogenised and sonicated in the assay buffer (50 mM HEPES, 10% sucrose, 0.1% CHAPS, 5 mM GSSG, 5 mM DTT). The supernatants of the samples were incubated in this buffer, whereto DEVD-AMC at a concentration of 50 μM was added. The AMC released was quantified for 1 hour and a half at 37° C. by fluorospectrophotometry, using 380 nm of excitation and measuring the emission at 450 nm.

[1] = test system: Proximal tubular epithelial cells from rats (NRK52e); test: In vitro cisplatin-induced damage of renal tubular cells: real-time RT-PCR of PCNA and Ki67; assay type: cell-based; conditions: cis+CAII group: NRK52e, cisplatin 200 μM 6 h, then 10 μg/ml CAII 16 h; vs cis; FIG. 4
Description: (§5) Proximal tubular epithelial cells from rats (NRK52e) were kept in culture bottles (75 cm^2), with a culture medium (DMEM) whereto 17.5 mM of glucose and 2.5 mM of glutamine were added; this medium was also supplemented with antibiotics (100 units/ml of penicillin and 100 μg/ml of streptomycin) and 10% foetal calf serum (FCS). The cells were incubated in a humidified atmosphere with 5% CO2 at 37° C.
(§6) The control cells (control) were collected when they reached confluence without any treatment.
Treatment with cisplatin (Sigma) was performed by dissolving the drug in the minimum volume of DMSO (40 μl) and diluting it in PBS at a concentration of 200 μM. After 6 hours, the medium was removed and a new medium was added, without the drug for the CIS group and with 10 μg/ml of CAII for the CIS+CAII group. The samples were collected 16 hours later. […]
as §3, with “the” for “the kidney”, “samples taken from the cell culture” for “samples”, “using” for “by means of”
The expression of the analysed genes was measured by means of real-time quantitative RT-PCR normalised with GAPDH. […]

[2] = test system: Proximal tubular epithelial cells from rats (NRK52e); test: In vitro cisplatin-induced damage of renal tubular cells: apoptosis evaluated by activity of caspase 3; assay type: cell-based; conditions: cisplatin+CAII group: NRK52e, cisplatin 200 μM 6 h, then 10 μg/ml CAII 16 h; vs cisplatin; FIG. 5
Description: as §5, §6
Treatment with cisplatin (Sigma) was performed by dissolving the drug in the minimum volume of DMSO (40 μl) and diluting it in PBS at a concentration of 200 μM. […]
as §4, with “Pa.). The cell culture samples were” for “Pa.). The renal tissue samples were”, “of the sample were incubated” for “of the samples were incubated”, “C. by means of fluorospectrophotometry, using” for “C. by fluorospectrophotometry, using”

[3] = I/R+AZT group: Azetazolamide 30 mg/kg intraperitoneal one day prior to I/R

Molecule	amount of EPO in kidney (Western Blot) (Erythropoietin (EPO); [3])	regenerative markers (PCNA and Stathmin mRNA) (PCNA and Stathmin genes; [3])	amount of EPO in kidney (Western Blot) (Erythropoietin (EPO); I/R+CAII group: CAII 5 mg/kg at beginning of reperfusion)	regenerative response (expression of PCNA and Stathmin mRNA) (PCNA and Stathmin genes; I/R+CAII group: 45 min ischemia, 24 h reperfusion, CAII 5 mg/kg into inferior vena cava at beginning of reperfusion, vs I/R)	regeneration (PCNA and Stathmin mRNA) in undamaged tissue (PCNA and Stathmin genes; control+CAII group: no I/R, CAII 5 mg/kg intravenous 24 h prior to sample collection)	incidence of apoptosis (activity of caspase 3) (caspase 3; I/R+CAII group: CAII 5 mg/kg at beginning of reperfusion, vs I/R)	apoptosis naturally present in healthy tissue (activity of caspase 3) (caspase 3; control+CAII group: no I/R, CAII 5 mg/kg intravenous)	regeneration (expression of PCNA and Ki67 mRNA) [1]	apoptosis (activity of caspase 3) [2]
CC(=O)Nc1nnc(S(N)(=O)=O)s1 [azetazolamide, Azetazolamide, reference compound]	reduced the amount of EPO	decrease							
carbonic anhydrase II [CAII]			marked increase	marked increase	did not induce regeneration	drastically reduced	does not affect	significantly increased regeneration	capable of reverting apoptosis
